The text below walks through data of publication PMC4450062, “A Membrane-bound eIF2 Alpha Kinase Located in Endosomes Is Regulated by Heme and Controls Differentiation and ROS Levels in Trypanosoma cruzi” (PLoS Pathogens, 2015).

Each structure is given as a SMILES string.

The experiment concerns the target T1, GST-TcK2 (kinase domain of TcK2, T. cruzi K2) (Trypanosoma cruzi, UniProt Q4E5B6).
T1 construct: gene Tc00.1047053506559.129; N-terminal GST fusion (pGEX5X-1), GST kept, 68 kDa; E. coli BL21; transmembrane and N-terminal domains absent
T1 sequence (Q4E5B6 638-984): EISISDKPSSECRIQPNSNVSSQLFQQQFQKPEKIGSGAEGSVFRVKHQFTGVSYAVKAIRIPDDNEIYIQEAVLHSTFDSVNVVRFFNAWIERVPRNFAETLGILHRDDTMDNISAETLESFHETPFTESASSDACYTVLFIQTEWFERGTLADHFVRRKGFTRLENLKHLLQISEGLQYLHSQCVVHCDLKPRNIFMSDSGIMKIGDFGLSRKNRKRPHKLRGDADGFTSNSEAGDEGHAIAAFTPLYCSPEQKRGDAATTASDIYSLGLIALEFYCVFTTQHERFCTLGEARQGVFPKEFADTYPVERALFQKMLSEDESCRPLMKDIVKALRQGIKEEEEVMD
The experiment is described as follows: Soret absorbance titration at […] nm. It counts as binding. To be noted: 0.1 M Tris-HCl pH 7.4, 50 mM NaCl, 25 °C, 30 min incubation; 5 μg/ml protein; GST alone shows no Soret band; read-out: Kd^app.

`C=CC1=C(C)C2=Cc3c(C=C)c(C)c4[n]3[Fe]([Cl])[n]3c(c(C)c(CCC(=O)O)c3=CC3=NC(=C4)C(C)=C3CCC(=O)O)=CC1=N2` [hemin]: the Kd came out at 2.8 ± 0.6 µM.
